Measurements published in patent publication US20080009418A1, “Selective Inhibitors” (Alchemia LTD., priority 2004, published 2008).

Legend:
[1] = target: T1, Human melanin-concentrating hormone (MCH1) (Homo sapiens, UniProt Q99705); experiment: Radioligand binding, human melanin-concentrating hormone MCH1 membranes, FlashPlate, [125I]-S36057; conditions: compound at 10 μM; for A6 radioligand binding, percentage inhibition: [125I]-S36057
T1 construct: purchased Perkin Elmer Biosignal
How it was run: (§1)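 Cloned human receptor membranes were coated onto FlashPlate wells and incubated with radioligand and compound (added from a 0.5 mM DMSO daughter plate) for 1 hour at room temperature in the dark. Scintillation counting gave percent inhibition, with DMSO defining total and reference ligand defining non-specific binding.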

[2] = target: T2, Human neurokinin (NK1) (Homo sapiens, UniProt P25103); experiment: Radioligand binding, human neurokinin NK1 membranes, filtration, [125I]-Substance P; conditions: compound at 10 μM, [125I]-Substance P
T2 construct: purchased Perkin Elmer Biosignal
T2 sequence (P25103 whole entry): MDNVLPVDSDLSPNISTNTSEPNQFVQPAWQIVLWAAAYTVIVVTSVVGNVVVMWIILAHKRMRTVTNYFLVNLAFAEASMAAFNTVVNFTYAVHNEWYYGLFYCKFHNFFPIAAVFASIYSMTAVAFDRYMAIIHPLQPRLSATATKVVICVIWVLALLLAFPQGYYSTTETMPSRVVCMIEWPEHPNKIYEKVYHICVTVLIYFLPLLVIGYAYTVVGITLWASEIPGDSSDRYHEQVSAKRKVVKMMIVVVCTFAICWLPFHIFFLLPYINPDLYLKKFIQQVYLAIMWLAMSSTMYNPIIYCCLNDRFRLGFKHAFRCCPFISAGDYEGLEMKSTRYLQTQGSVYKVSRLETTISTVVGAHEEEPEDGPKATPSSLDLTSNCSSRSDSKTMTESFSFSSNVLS
How it was run: (§2)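 Percent inhibition of radioligand binding measured on recombinant human membranes: NK1 with [125I]-Substance P, KOP with [3H]-Diprenorphine. Incubation 1 h at room temperature, then harvest onto 0.3% PEI-soaked filters, cold Tris-HCl pH 7.4 washes and scintillation counting; non-specific binding from reference ligand wells.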

[3] = target: T3, Human opioid (ORL1) (Homo sapiens, UniProt P41146); experiment: Radioligand binding, human opioid ORL1 membranes, FlashPlate, [125I]-Nociceptin; conditions: compound at 10 μM, [125I]-Nociceptin
T3 construct: purchased Perkin Elmer Biosignal
T3 sequence (P41146 whole entry): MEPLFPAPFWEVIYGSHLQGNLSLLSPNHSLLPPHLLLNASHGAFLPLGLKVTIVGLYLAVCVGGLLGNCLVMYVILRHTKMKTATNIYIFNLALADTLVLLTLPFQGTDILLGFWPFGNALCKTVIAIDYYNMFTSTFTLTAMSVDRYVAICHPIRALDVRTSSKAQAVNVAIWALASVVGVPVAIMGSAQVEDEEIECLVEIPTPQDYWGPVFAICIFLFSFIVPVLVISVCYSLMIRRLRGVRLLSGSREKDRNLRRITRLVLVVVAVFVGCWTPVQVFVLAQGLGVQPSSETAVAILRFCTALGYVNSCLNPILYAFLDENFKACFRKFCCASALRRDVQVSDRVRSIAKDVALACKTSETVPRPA
How it was run: as §1

[4] = target: T4, Human neuropeptide Y (NPY-Y1) (Homo sapiens, UniProt P25929); experiment: Radioligand binding, human neuropeptide Y NPY-Y1 membranes, FlashPlate, [125I]-PYY; conditions: compound at 10 μM, [125I]-PYY
T4 construct: purchased Perkin Elmer Biosignal
T4 sequence (P25929 1-384): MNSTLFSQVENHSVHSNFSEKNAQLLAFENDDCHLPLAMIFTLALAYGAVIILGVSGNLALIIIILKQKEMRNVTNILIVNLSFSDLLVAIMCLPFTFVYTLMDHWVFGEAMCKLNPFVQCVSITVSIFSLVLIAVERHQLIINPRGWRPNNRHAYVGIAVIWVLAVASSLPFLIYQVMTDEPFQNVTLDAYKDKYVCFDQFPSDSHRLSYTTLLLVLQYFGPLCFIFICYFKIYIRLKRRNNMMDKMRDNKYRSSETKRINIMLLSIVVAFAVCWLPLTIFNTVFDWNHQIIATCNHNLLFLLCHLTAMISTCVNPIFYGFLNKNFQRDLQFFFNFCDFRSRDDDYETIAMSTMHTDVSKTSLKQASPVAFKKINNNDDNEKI
How it was run: as §1

[5] = target: T5, Human melanocortin (MC5) (Homo sapiens, UniProt P33032); experiment: Radioligand binding, human melanocortin MC5 membranes, FlashPlate, [125I]-NDP-αMSH; conditions: compound at 10 μM, [125I]-NDP-αMSH
T5 construct: purchased Perkin Elmer Biosignal
T5 sequence (P33032 whole entry): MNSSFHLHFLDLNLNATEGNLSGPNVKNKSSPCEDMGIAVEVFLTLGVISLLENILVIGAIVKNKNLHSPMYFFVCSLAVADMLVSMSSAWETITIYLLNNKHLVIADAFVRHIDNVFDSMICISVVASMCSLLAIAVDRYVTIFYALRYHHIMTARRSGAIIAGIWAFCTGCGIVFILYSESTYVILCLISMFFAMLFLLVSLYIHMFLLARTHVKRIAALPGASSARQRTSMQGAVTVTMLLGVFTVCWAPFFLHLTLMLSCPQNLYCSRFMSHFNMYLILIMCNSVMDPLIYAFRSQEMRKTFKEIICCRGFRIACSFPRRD
How it was run: as §1

[6] = target: T6, Human Melanocortin (MC4) (Homo sapiens, UniProt P32245); experiment: Radioligand binding, human melanocortin MC4 membranes, FlashPlate, [125I]-NDP-αMSH; conditions: compound at 10 μM, [125I]-NDP-αMSH
T6 construct: purchased Perkin Elmer Biosignal
T6 sequence (P32245 whole entry): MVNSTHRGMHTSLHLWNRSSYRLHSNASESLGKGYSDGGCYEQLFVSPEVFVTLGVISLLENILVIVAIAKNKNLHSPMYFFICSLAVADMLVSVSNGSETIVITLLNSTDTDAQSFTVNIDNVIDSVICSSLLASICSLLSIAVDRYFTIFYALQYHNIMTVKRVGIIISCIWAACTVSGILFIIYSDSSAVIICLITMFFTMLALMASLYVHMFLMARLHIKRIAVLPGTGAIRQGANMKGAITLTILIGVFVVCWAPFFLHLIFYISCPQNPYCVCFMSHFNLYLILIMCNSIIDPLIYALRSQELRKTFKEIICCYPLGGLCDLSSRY
How it was run: as §1

[7] = target: T7, Mouse urotensin (mUR2) (Mus musculus, UniProt Q8VIH9); experiment: Radioligand binding, mouse urotensin mUR2 membranes, FlashPlate, [125I]-Urotensin II; conditions: compound at 10 μM, [125I]-Urotensin II
T7 construct: purchased Perkin Elmer Biosignal
T7 sequence (Q8VIH9 1-385): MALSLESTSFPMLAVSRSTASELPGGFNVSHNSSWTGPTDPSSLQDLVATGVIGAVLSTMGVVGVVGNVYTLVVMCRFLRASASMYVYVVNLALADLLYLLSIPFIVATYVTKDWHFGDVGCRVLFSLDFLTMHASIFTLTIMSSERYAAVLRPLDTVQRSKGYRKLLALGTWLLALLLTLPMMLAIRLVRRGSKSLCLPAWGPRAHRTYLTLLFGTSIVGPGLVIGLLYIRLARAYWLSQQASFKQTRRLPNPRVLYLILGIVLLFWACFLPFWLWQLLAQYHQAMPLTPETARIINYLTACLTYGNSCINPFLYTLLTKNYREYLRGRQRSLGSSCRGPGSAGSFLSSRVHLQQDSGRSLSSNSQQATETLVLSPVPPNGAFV
How it was run: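 Cloned mouse urotensin (mUR2) receptor membranes from Perkin Elmer Biosignal were immobilized in FlashPlate microplates using a proprietary coating. Each well got 19.5 μl buffer, then 0.5 μl of DMSO, reference ligand, or compound. Adding 5 μl of [125I]-Urotensin II, diluted to 5× final concentration in binding buffer, started binding. Plates were sealed with TopSeal-A and incubated 1 hour at room temperature in the dark. Wells were counted for 30 seconds each on a TopCount after a 60-second delay, and percentage inhibition was calculated.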

[8] = target: T8, Human κ-Opioid (KOP) (Homo sapiens, UniProt P41145); experiment: Radioligand binding, human κ-opioid (KOP) membranes, filtration, [3H]-Diprenorphine; conditions: compound at 10 μM, [3H]-Diprenorphine
T8 construct: purchased Perkin Elmer Biosignal
T8 sequence (P41145 whole entry): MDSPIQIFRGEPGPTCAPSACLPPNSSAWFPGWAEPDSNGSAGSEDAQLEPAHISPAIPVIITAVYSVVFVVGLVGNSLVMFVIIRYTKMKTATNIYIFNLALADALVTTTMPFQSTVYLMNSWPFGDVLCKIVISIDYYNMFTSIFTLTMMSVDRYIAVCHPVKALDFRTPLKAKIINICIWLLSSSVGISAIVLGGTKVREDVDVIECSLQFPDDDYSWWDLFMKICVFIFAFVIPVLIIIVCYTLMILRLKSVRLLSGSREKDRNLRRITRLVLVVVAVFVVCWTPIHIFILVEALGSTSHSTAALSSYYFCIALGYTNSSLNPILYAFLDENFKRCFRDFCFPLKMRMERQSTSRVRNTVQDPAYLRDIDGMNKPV
How it was run: as §2

[9] = target: T9, Human Melanocortin (MC3) (Homo sapiens, UniProt P41968); experiment: Radioligand binding, human melanocortin MC3 membranes, FlashPlate, [125I]-NDP-αMSH; conditions: compound at 10 μM, [125I]-NDP-αMSH
T9 construct: purchased Perkin Elmer Biosignal
T9 sequence (P41968 whole entry): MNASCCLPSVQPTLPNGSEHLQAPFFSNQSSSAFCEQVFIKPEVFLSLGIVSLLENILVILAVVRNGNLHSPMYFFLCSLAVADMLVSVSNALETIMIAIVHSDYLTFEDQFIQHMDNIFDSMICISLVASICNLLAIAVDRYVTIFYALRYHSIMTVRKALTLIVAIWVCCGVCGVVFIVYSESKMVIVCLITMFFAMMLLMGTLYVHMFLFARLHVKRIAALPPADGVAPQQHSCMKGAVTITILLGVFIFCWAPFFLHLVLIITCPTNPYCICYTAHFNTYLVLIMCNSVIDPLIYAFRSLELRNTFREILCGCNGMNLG
How it was run: as §1

[10] = target: T10, Human μ-opioid (MOP) (Homo sapiens, UniProt P35372); experiment: Radioligand binding, human μ-opioid (MOP) membranes, FlashPlate, [3H]-Naloxone; conditions: compound at 10 μM, [3H]-Naloxone
T10 construct: purchased Perkin Elmer Biosignal
T10 sequence (P35372 whole entry): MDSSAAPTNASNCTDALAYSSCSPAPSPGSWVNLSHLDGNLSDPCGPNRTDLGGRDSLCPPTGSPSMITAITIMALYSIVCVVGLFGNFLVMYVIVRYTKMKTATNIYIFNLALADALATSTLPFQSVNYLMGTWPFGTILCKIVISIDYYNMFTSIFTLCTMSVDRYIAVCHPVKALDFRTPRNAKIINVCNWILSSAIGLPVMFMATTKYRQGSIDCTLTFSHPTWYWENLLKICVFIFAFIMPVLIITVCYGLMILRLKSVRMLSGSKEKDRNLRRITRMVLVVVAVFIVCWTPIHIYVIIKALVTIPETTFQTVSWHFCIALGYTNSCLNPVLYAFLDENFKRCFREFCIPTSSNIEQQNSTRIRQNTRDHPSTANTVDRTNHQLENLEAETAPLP
How it was run: as §1

[11] = target: T11, Human δ-opioid (DOP) (Homo sapiens, UniProt P41143); experiment: Radioligand binding, human δ-opioid (DOP) membranes, FlashPlate, [3H]-Bremazocine; conditions: compound at 10 μM, [3H]-Bremazocine
T11 construct: purchased Perkin Elmer Biosignal
T11 sequence (P41143 whole entry): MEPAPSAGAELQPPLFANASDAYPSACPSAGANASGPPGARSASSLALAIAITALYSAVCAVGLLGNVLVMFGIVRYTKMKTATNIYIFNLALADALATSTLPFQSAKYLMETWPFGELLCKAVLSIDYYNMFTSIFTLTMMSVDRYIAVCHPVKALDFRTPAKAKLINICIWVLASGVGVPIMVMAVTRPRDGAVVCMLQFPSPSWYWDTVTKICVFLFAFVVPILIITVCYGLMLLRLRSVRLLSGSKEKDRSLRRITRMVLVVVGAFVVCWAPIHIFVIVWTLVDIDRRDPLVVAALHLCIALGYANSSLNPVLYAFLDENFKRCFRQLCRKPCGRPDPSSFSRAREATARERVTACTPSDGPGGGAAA
How it was run: as §1

T1 sequence (Q99705 whole entry): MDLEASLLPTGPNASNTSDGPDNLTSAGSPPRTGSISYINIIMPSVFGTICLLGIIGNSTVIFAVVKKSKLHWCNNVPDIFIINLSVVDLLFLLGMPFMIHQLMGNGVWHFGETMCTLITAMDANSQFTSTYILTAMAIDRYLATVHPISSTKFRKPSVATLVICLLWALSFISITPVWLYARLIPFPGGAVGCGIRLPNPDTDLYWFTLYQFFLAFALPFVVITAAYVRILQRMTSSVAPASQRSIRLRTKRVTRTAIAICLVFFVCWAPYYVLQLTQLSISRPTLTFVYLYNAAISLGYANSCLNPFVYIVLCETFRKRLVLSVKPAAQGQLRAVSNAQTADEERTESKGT

Compound	A6 radioligand binding, percentage inhibition [1]	A8 radioligand binding, percentage inhibition [2]	A10 radioligand binding, percentage inhibition [3]	A9 radioligand binding, percentage inhibition [4]	A5 radioligand binding, percentage inhibition [5]	A4 radioligand binding, percentage inhibition [6]	A11 radioligand binding, percentage inhibition [7]	A2 radioligand binding, percentage inhibition [8]	A3 radioligand binding, percentage inhibition [9]	A7 radioligand binding, percentage inhibition [10]	A1 radioligand binding, percentage inhibition [11]	also measured
CO[C@H]1[C@H](O)[C@@H](COCc2cccc(O)c2)OC(OCCc2ccccc2)[C@@H]1NC(=O)CCNC(=N)N (stereo partly shown) [compound 159]	− (“−” indicates less than 50% inhibition at 10 μM)	+ (“+” indicates greater than 50% inhibition at 10 μM)	− (“−” indicates less than 50% inhibition at 10 μM)	− (“−” indicates less than 50% inhibition at 10 μM)	− (“−” indicates less than 50% inhibition at 10 μM)	− (“−” indicates less than 50% inhibition at 10 μM)	− (“−” indicates less than 50% inhibition at 10 μM)	− (“−” indicates less than 50% inhibition at 10 μM)	− (“−” indicates less than 50% inhibition at 10 μM)	− (“−” indicates less than 50% inhibition at 10 μM)	− (“−” indicates less than 50% inhibition at 10 μM)	
COCC1OC(OCc2ccc3ccccc3c2)C(NC(=O)CNC(=N)N)C(OCc2ccc(Cl)cc2)C1O (stereo not shown) [compound 236]												A6: inhibition of radioligand binding ([1]; [125I]-S36057, FlashPlate): + (“+” indicates greater than 50% inhibition at 10 μM); A8: inhibition of radioligand binding ([2]; filtration): + (“+” indicates greater than 50% inhibition at 10 μM); A10: inhibition of radioligand binding ([3]; FlashPlate): − (“−” indicates less than 50% inhibition at 10 μM); A9: inhibition of radioligand binding ([4]; FlashPlate): − (“−” indicates less than 50% inhibition at 10 μM); A5: inhibition of radioligand binding ([5]; FlashPlate): + (“+” indicates greater than 50% inhibition at 10 μM); A4: inhibition of radioligand binding ([6]; FlashPlate): + (“+” indicates greater than 50% inhibition at 10 μM); A11: inhibition of radioligand binding ([7]; FlashPlate): − (“−” indicates less than 50% inhibition at 10 μM); A2: inhibition of radioligand binding ([8]; filtration): − (“−” indicates less than 50% inhibition at 10 μM); A3: inhibition of radioligand binding ([9]; FlashPlate): + (“+” indicates greater than 50% inhibition at 10 μM); A7: inhibition of radioligand binding ([10]; FlashPlate): − (“−” indicates less than 50% inhibition at 10 μM); A1: inhibition of radioligand binding ([11]; FlashPlate): − (“−” indicates less than 50% inhibition at 10 μM)
NCCC(=O)N[C@H]1C(OCc2ccc3ccccc3c2)O[C@H](COCc2ccc3ccccc3c2)[C@@H](O)[C@@H]1OCc1ccc2ccccc2c1 (stereo partly shown) [compound 443]												A6: inhibition of radioligand binding ([1]; [125I]-S36057, human MCH1 membranes): + (“+” indicates greater than 50% inhibition at 10 μM); A8: inhibition of radioligand binding ([2]; human NK1 membranes): + (“+” indicates greater than 50% inhibition at 10 μM); A10: inhibition of radioligand binding ([3]; human ORL1 membranes): + (“+” indicates greater than 50% inhibition at 10 μM); A9: inhibition of radioligand binding ([4]; human NPY-Y1 membranes): − (“−” indicates less than 50% inhibition at 10 μM); A5: inhibition of radioligand binding ([5]; human MC5 membranes): + (“+” indicates greater than 50% inhibition at 10 μM); A4: inhibition of radioligand binding ([6]; human MC4 membranes): + (“+” indicates greater than 50% inhibition at 10 μM); A11: inhibition of radioligand binding ([7]; mouse mUR2 membranes): − (“−” indicates less than 50% inhibition at 10 μM); A2: inhibition of radioligand binding ([8]; human KOP membranes): − (“−” indicates less than 50% inhibition at 10 μM); A3: inhibition of radioligand binding ([9]; human MC3 membranes): + (“+” indicates greater than 50% inhibition at 10 μM); A7: inhibition of radioligand binding ([10]; human MOP membranes): − (“−” indicates less than 50% inhibition at 10 μM); A1: inhibition of radioligand binding ([11]; human DOP membranes): − (“−” indicates less than 50% inhibition at 10 μM)
COC[C@H]1OC(OCc2ccc(Cl)cc2)[C@H](NC(=O)CCNC(=N)N)[C@@H](OCc2cccc(O)c2)[C@@H]1O (stereo partly shown) [compound 138]	− (“−” indicates less than 50% inhibition at 10 μM)	− (“−” indicates less than 50% inhibition at 10 μM)	− (“−” indicates less than 50% inhibition at 10 μM)	− (“−” indicates less than 50% inhibition at 10 μM)	− (“−” indicates less than 50% inhibition at 10 μM)	− (“−” indicates less than 50% inhibition at 10 μM)	− (“−” indicates less than 50% inhibition at 10 μM)	− (“−” indicates less than 50% inhibition at 10 μM)	− (“−” indicates less than 50% inhibition at 10 μM)	+ (“+” indicates greater than 50% inhibition at 10 μM)	+ (“+” indicates greater than 50% inhibition at 10 μM)	
CO[C@H]1[C@H](O)[C@@H](COCc2ccc(-c3ccccc3)cc2)OC(OCc2cccc(O)c2)[C@@H]1NC(=O)CCCN (stereo partly shown) [compound 164]	− (“−” indicates less than 50% inhibition at 10 μM)	+ (“+” indicates greater than 50% inhibition at 10 μM)	− (“−” indicates less than 50% inhibition at 10 μM)	− (“−” indicates less than 50% inhibition at 10 μM)	− (“−” indicates less than 50% inhibition at 10 μM)	+ (“+” indicates greater than 50% inhibition at 10 μM)	− (“−” indicates less than 50% inhibition at 10 μM)	− (“−” indicates less than 50% inhibition at 10 μM)	− (“−” indicates less than 50% inhibition at 10 μM)	− (“−” indicates less than 50% inhibition at 10 μM)	− (“−” indicates less than 50% inhibition at 10 μM)	
